Measured values as given in patent US12227492B1, “Pyrimidine nucleosides as anticancer agents against pancreatic cancer” (Florida A&M University, priority 2021, dated 2025).
Structures can show the parent of a compound that is named as a salt. Where two headings read alike, the source gives them in different places.

Legend:
[1] = tested on: MiaPaCa-2 pancreatic cancer cell line; assay: In vitro cell viability studies (resazurin/Alamar Blue); type: cell-based; conditions: for IC50: Homo sapiens, MIA PaCa-2, MiaPaCa-2, 48 hr incubation
Method: Prior to viability studies, Dulbecco's modified Eagle medium (DMEM) with high glucose and L-glutamine was supplemented with 10% fetal bovine serum (FBS) and 1% penicillin-streptomycin (PenStrep). Briefly, MiaPaCa-2 cells were seeded at a density of 1×10^3 per well in 96-well plates in triplicates for each drug concentration level and incubated at 5% CO2 and temperature of 37° C. At 70-75% confluence, MiaPaCa-2 cells were treated with compounds XYZ-I-71, XYZ-I-73, 5-Fluorouracil (5-FU), Gemcitabine (Gem) and Irinotecan. Varying concentrations of 4NSG was prepared from its stock solution with growth medium. For 5-Fluorouracil (5-FU), Gemcitabine Hydrochloride (GemHCl) and Irinotecan, a stock solution was prepared with phosphate-buffered saline (PBS) and serially diluted with growth medium to prepare varied concentrations: thus 3, 6, 12, 25, and 100 μM. Cells was treated with 100 μL of each drug concentration in triplicates and incubated for 48 hr. At termination, 20 μL of 0.05% resazurin sodium salt (Alamar Blue®) was added and incubated at optimum conditions (5% CO2, 37° C.) for 4 hr. Fluorimetric analysis was determined at excitation wavelength of 560/580 nm and emission wavelength of 590/610 nm and the percent viable cells per concentration was calculated. For statistical analysis, results are presented as mean±SD. Data were analyzed for significance by one-way ANOVA, using GraphPad Prism 5 Software and IC50 values were determined.

MiaPaCa-2 cells = assay: In vitro cell migration (wound) assay; type: cell-based; conditions: 2, 5 and 10 μM, after 48 h, compared with 5-FU, GemHCl
Method: A uniform scratch was made in 90% confluent monolayer culture of MiaPaCa-2 cells and the extent of closure was monitored under microscope and photographed. […] Migrated cells within the scratch were quantified and the distance of migration measured using NIH ImageJ software. […] Over the same incubation time, the cells in the control group (48 h) migrated farther achieving a complete or near closure of the wounds. The results are expressed as the means (±SEM, N=4) relative to the control.
Cell migration assay was conducted to determine the effect of on 5-FU, GemHCl, XYZ-I-71 and XYZ-I-73 MiaPaCa-2 cell motility. Ibidi cell culture inserts were used to generate two confluent monolayers of cells separated by a “wound” for this assay. The cells were seeded in 24-well plates at a cell density of 2.5×10^5, for 24 h at 37° C. At 75% confluency, cells formed adherent monolayers on either side of the tissue culture insert. Prior to treatment, the cells were serum-starved by replacing complete media with base media (DMEM) and then further incubated for 24 hours. After serum starving, the insert was gently removed to generate a gap or “wound’ between the two confluent layers of cells. The monolayers were washed with experimental media and afterwards cells were exposed to varying concentrations of 5-FU, GemHCl, XYZ-I-71 and XYZ-I-73 (1, 2, 5 and 10 μM). […]

Log P = type: physicochemical
[2] = mean ± SD, read-out: IC50 (μM) against MiaPaCa-2 cell line as determined by cell viability studies
[3] = read-out: IC50 values, cytotoxic activity against MiaPaCa-2 cancer line

Row | Compound | IC50 [1, 2] [µM] | number of migrated cells towards the wound (MiaPaCa-2 cells) | IC50 [1, 3] [µM] | cytotoxic activity against MiaPaCa-2, XYZ-I-73 versus XYZ-I-71 ([1]; MiaPaCa-2, FIG. 7) | efficacy against MiaPaCa-2 cancer line compared with 5-FU (IC50 data) ([1]; MiaPaCa-2) | logP (Log P)
1 | CCc1c2c(nc3ccc(OC(=O)N4CCC(N5CCCCC5)CC4)cc13)-c1cc3c(c(=O)n1C2)COC(=O)[C@]3(O)CC [Irinotecan, reference compound] | 28 ± 1.5 |  |  |  |  | 
2 | CCCCCCCCCCCC(=O)Nc1nc(=O)n(C2CCCO2)cc1F (centres unmarked) [XYZ-I-73, N-(5-fluoro-2-oxo-1-(tetrahydrofuran-2-yl)-1,2-dihydropyrimidin-4-yl)dodecanamide] | 6.81 ± 2.1 | significantly inhibited | 6.81 ± 1.1 | significant higher cytotoxic activity | greater efficacy | 3.94
3 | Nc1ccn([C@@H]2O[C@H](CO)[C@@H](O)C2(F)F)c(=O)n1 [GemHCl, Gemcitabine Hydrochloride, reference compound] | 25.3 ± 1.3 |  |  |  |  | 
4 | CCCCCCCC(=O)Nc1nc(=O)n(C2CCCO2)cc1F (centres unmarked) [XYZ-I-71, N-(5-fluoro-2-oxo-1-(tetrahydrofuran-2-yl)-1,2-dihydropyrimidin-4-yl)octanamide] | 13.8 ± 1.7 | significantly inhibited | 13.8 ± 1.1 |  | greater efficacy | 2.27
5 | O=c1[nH]cc(F)c(=O)[nH]1 [Compound 5-FU, 5-Fluorouracil, reference compound] | 51.1 ± 1.1 |  |  |  |  | 
